Assay results: ChEMBL document CHEMBL1137435, “Synthesis and application of 2'-fluoro-substituted cap analogs” (Bioorg Med Chem Lett, 2007)

Experiment: Capping efficiency on mRNA after 2 hrs by gel shift assay

Row | Activity | SMILES
1 | 52% | C[n+]1cn([C@@H]2O[C@H](COP(=O)([O-])OP(=O)([O-])OP(=O)(O)OC[C@@H]3O[C@H](n4c[n+](C)c5c(=O)[nH]c(N)nc54)[C@@H](F)[C@H]3O)[C@@H](O)[C@H]2O)c2nc(N)[nH]c(=O)c21
2 | 70% | C[n+]1cn([C@H]2O[C@@H](COP(=O)([O-])OP(=O)(O)OP(=O)(O)OC[C@H]3O[C@@H](n4cnc5c(=O)[nH]c(N)nc54)[C@H](O)[C@@H]3O)[C@H](O)[C@@H]2F)c2nc(N)[nH]c(=O)c21
3 | 61% | C[n+]1cn([C@H]2O[C@@H](COP(=O)([O-])OP(=O)(O)OP(=O)(O)OC[C@H]3O[C@@H](n4cnc5c(=O)[nH]c(N)nc54)[C@H](O)[C@@H]3O)[C@H](O)[C@@H]2O)c2nc(N)[nH]c(=O)c21
